Target: T1, AtSultr2;1 (Arabidopsis thaliana, UniProt O04722)
T1 construct: gene SULTR2; full-length ORF from Arabidopsis root RNA in pESC-TRP (GAL10 promoter), expressed in Saccharomyces cerevisiae CP154-7A
T1 sequence (O04722 1-677): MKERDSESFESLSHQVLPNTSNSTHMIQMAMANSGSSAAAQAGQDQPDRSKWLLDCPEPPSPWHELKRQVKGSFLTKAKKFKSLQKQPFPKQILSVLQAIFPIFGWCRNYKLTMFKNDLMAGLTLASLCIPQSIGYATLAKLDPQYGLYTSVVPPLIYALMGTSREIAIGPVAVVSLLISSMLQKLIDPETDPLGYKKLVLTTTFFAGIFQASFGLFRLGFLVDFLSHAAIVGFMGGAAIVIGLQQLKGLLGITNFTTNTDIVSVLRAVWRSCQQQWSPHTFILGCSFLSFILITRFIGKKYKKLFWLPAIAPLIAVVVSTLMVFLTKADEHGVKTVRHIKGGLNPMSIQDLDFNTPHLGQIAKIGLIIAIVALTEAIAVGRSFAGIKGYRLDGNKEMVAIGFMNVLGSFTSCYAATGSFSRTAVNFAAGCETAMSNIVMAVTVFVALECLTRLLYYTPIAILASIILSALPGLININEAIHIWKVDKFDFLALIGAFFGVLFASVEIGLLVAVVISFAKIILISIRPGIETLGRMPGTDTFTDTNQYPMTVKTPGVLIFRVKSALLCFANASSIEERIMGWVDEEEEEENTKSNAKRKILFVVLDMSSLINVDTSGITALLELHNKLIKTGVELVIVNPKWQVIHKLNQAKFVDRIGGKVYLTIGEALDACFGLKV
Assay: growth rate of complemented yeast versus sulfate, Michaelis-Menten fit
Type: cell-based
Details: growth constant as estimate of apparent Km; sulfate 0-3 mM as sole sulfur source, 28°C; yeast CP154-7A

Structure (SMILES): O=S(=O)(O)O [sulfate]
- kG: Estimation of the growth constant (kG) for sulfate
